Laboratory results reported in patent EP1836906B1, “Healthy food product” (Unilever N.V., priority 2006, dated 2009).
Ends that are not written are not given here.

test: Water solubility test (turbid appearance of 10 mg peptide in 10 ml de-mineralised water); details: water at 20 C and pH 6.5
Protocol: Peptides for use in food products according to the invention are water-insoluble in water at 20°C and a pH of 6.5. This can for example be evidenced by mixing 10 mg of the peptide into 10 ml of de-mineralised water at 20°C and pH 6.5, and stirring. A (measurable) turbid appearance of the solution after stirring is indicative of the fact that the peptide is water-insoluble.

Row | Compound | Peptide category (substantially water-insoluble or soluble)
1 | YYYYYY [YYYYYY] | Insoluble peptides
2 | GSGGSG [GSGGSG] | Soluble peptides
3 | EAEWEY [EAEWEY, reference compound] | Soluble peptides
4 | VEWEME [VEWEME, reference compound] | Soluble peptides
5 | DDDDDD [DDDDDD, reference compound] | Soluble peptides
6 | GGGGGGGG [GGGGGGGG] | Insoluble peptides

test: not given; details: pH 6.5

Row | Compound | Peptide category (substantially water-insoluble or soluble)
7 | NCC(=O)NCC(=O)NCC(=O)NCC(=O)NCC(=O)NCC(=O)O [GGGGGG] | Insoluble peptides
